Read-outs that look alike come from different tables or passages of the source.

These results are taken from patent US8188080B2 (Sanford-Burnham Medical Research Institute, priority 2007, dated 2012).

The target in test [1] is T1, VHR (Homo sapiens, UniProt P51452). Briefly: Inhibition constant and inhibition pattern (Lineweaver-Burk plot). The format is biochemical. The note with it: FIG. 1. The procedure:
Using the same format and buffer system as for […] measurements, the enzyme was preincubated with various fixed concentrations of inhibitors for 10 minutes. The reaction was initiated by addition of various concentrations of DiFMUP (ranging from 0.2 to 10 km) to the reaction mixture. The initial rate was determined using a FLx800 micro plate reader (Bio-Tek Instruments, Inc.), and exitation wave length of 360 nm and measuring the emission of the fluorescent reaction product DiFMU at 460 nm. The nonenzymatic hydrolysis of the substrate was corrected by measuring the control without addition of enzyme. The inhibition constant and inhibition pattern was evaluated by fitting the data to the Michaelis-Menten equations for either competitive, uncompetitive or mixed inhibition, using nonlinear regression and the program GraphPad Prism™.

In test [2] the target is T1, VHR. The experiment in a line: PTP-catalyzed hydrolysis of DiFMUP, IC50 determination (VHR). The class given is biochemical. The note with it: read-out: IC50. The procedure:
The PTP-catalyzed hydrolysis of 6,8-difluoro-4-methylumbelliferyl phosphate (DiFMUP) in the presence of the test compound is assayed at 30° C. in a 60 μL 96 well format reaction system in 0.15 M Bis-Tris, pH 6.0 assay buffer having an ionic strength of 150 mM (adjusted with NaCl) and containing 1 mM dithiotreitol and 5% DMSO. At various concentrations of the compound, the initial rate at fixed DiFMUP concentration (equal to the corresponding Km value for each PTP) was determined using a FLx800 micro plate reader (Bio-Tek Instruments, Inc.), an excitation wave length of 360 nm and measuring the emission of the fluorescent reaction product 6,8-difluoro-7-hydroxy-4-methylcoumarin (DiFMU) at 460 nm. The nonenzymatic hydrolysis of the substrate was corrected by measuring the control without addition of enzyme. The IC50 value was determined by plotting the relative activity versus inhibitor concentrations and fitting to Equation 1 using the software GraphPad Prism™ (GraphPad Software, Inc.).
[formula] In this case, Vi, is the reaction velocity when the inhibitor concentration is [I], V0 is the reaction velocity with no inhibitor and IC50=Ki+Ki[S]/Km.

For a further test, the system named is Ball-1 cells. The note with it: in vitro, arrest at G1/S transition; cited from earlier work.
Another test has as its target T2, heparanase (Homo sapiens, UniProt Q9Y251).
T2 sequence (Q9Y251 158-543 limits assumed): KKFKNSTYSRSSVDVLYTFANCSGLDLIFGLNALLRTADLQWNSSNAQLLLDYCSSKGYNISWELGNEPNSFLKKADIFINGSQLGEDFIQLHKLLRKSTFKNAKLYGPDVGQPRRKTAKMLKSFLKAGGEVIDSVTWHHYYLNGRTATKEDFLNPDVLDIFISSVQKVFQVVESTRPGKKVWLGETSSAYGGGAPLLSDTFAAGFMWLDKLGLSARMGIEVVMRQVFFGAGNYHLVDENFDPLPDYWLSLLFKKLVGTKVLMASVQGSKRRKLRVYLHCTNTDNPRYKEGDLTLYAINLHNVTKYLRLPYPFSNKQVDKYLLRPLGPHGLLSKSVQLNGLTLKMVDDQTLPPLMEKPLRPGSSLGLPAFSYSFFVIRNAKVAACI
T2 sequence (Q9Y251 36-109 partner limits assumed): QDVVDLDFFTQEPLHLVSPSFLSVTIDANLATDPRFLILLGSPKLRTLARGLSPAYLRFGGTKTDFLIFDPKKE
The note with it: cited from earlier work.

The target of another test is HIV-1 protease (Human immunodeficiency virus type 1 group M subtype B, UniProt P04585). The note with it: cited from earlier work.
For the next test, the system named is phospholipase A2. The note with it: cited from earlier work.

T1 sequence (P51452 whole entry): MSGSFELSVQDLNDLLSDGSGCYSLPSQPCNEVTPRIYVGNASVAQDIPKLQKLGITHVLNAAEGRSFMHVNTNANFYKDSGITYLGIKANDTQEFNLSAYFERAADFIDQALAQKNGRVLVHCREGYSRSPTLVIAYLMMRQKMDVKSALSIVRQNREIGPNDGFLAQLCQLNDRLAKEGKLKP

Take `O=C1/C(=C/C=C/c2ccccc2)SC(=S)N1CCS(=O)(=O)O` [2-[(Z)-4-oxo-5-((E)-3-phenylallylidene)-2-thioxothiazolidin-3-yl]ethane-sulfonic acid]: the “inhibition pattern of VHR” value at VHR [1] was “competitive inhibition”. Regarding `CCOc1cc(/C=C2\SC(=S)N(CCS(=O)(=O)O)C2=O)ccc1O` [Compound 1, (Z)-2-[5-(3-Ethoxy-4-hydroxybenzylidene)-4-oxo-2-thioxothiazolidin-3-yl)ethansulfonic acid], the IC50 (in general, the concentration at which inhibition is half-maximal) at VHR [2] came to 50 µM. On the same count and under the same terms, in the case of `O=C1/C(=C/c2ccc(Cl)cc2Cl)SC(=S)N1CCS(=O)(=O)O` [Compound 2, (Z)-2-[5-(2,4-Dichlorobenzylidene)-4-oxo-2-thioxothiazolidin-3-yl)ethansulfonic acid] it was 9.81 µM; in that of `O=C(CN1C(=O)C(/C=C2\SC(=S)N(CCS(=O)(=O)O)C2=O)c2ccccc21)Nc1ccc(F)cc1` (stereo not drawn) [Compound 4], 12 µM. As to `CCCCCCCCCCCCCCCC(=O)C1=C(O)C(CO)OC1=O` (stereo not drawn) [RK-682], the cell cycle progression result with Ball-1 cells is “inhibited cell cycle progression”. Also, the heparanase inhibition entry on heparanase is on record as “heparanase inhibition”. The HIV-1 protease inhibition entry on HIV-1 protease is given as “HIV-1 protease inhibition”. Also, the “phospholipase A2 inhibition” value in the test with phospholipase A2 is recorded as “phospholipase A2 inhibition”. Take “(Z)-2-[5-(5-bromo-1-methyl-2-oxoindolin-3-ylidene)-4-oxo-2-thioxothiazolindin-3-yl]ethanesulfonic acid [Compound 3]”: the IC50 at VHR [2] (Table I, DiFMUP at Km, pH 6.0, 30° C.) was 32.6 µM.
